In the supplement of paper PMC11451515:

Legend:
Conditions in all cases: 48 h
[1] = system: NOMO1; assay: AUC of viability dose-response curve (% viability x log10 dose units); higher = less sensitive
Outline: (§1)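 Over 48 h at 37°C, leukemia cells in 1536-well plates (500 or 1000 cells/well), adapted to each medium, received library compounds in DMSO at 11 threefold doses from 47 μM to 0.79 nM. CellTiter-Glo One luminescence, normalised per plate to DMSO and cell-free wells, was fitted by a four-parameter log-logistic function of log10 dose. The area under the curve was then integrated by trapezoidal rule, after scaling curves above full viability and removing those that failed quality control.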

[2] = system: P12-Ichikawa; assay: as above
Outline: as §1

[3] = system: SEM cells; assay: as above
Outline: as §1

[4] = system: P12-Ichikawa; assay: cell viability relative to DMSO control; higher = less cytotoxic
Outline: (§2)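 Library compounds in DMSO were pin-dosed in an 11-point threefold series (47 μM to 0.79 nM) onto leukemia cells in 1536-well plates (5 μl). Plates held 500 cells/well of NOMO1 or SEM or 1000 cells/well of P12-Ichikawa, each adapted for at least four passages in each medium. Luminescence was read with CellTiter-Glo One after 48 h at 37°C. Viability means the per-plate percentage relative to DMSO wells, using cell-free wells as background.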

[5] = system: SEM cells; assay: as above
Outline: as §2

[6] = system: NOMO1; assay: as above
Outline: as §2

C[C@H](NCc1ccc2c(c1)nc(NC(=O)c1ccc(-c3cn[nH]c3)s1)n2CCc1ccccc1)C(C)(C)C
AUC of viability dose-response curve
Conditions | [1] | [2] | [3]
HPLM + 10% dialyzed FBS | 373 | 410 | 248
RPMI 5 mM glucose + 10% FBS | 404 | 403 | 242
RPMI 5 mM glucose + 10% dialyzed FBS | 396 | 412 | 224

CC1=CC=C2N=C(NC(=O)CS\C3=N\C4=C(\SCC4)C(=O)N3C5=CC=CC=C5)SC2=C1
AUC of viability dose-response curve
Conditions | HPLM + 10% dialyzed FBS | RPMI 5 mM glucose + 10% FBS | RPMI 5 mM glucose + 10% dialyzed FBS
[2] | 444 | 430 | 435
[3] | 424 | 421 | 446

O=C(CCCCCCNC(=O)c1cnc(N(c2ccccc2)c2ccccc2)nc1)NO
AUC of viability dose-response curve
Conditions | [1] | [2] | [3]
HPLM + 10% dialyzed FBS | 417 | 393 | 399
RPMI 5 mM glucose + 10% FBS | 422 | 386 | 390
RPMI 5 mM glucose + 10% dialyzed FBS | 426 | 382 | 392

O=C(NCCCCN1CCOCC1)c1cc2ccccc2o1
cell viability [%]
Conditions | HPLM + 10% dialyzed FBS | RPMI 5 mM glucose + 10% FBS | RPMI 5 mM glucose + 10% dialyzed FBS
[4], 0.000781 µM | 119 | 115 | 123
[4], 0.00234 µM | 122 | 122 | 128
[4], 0.00702 µM | 119 | 120 | 123
[4], 0.0211 µM | 115 | 118 | 131
[4], 0.0632 µM | 114 | 106 | 118
[4], 0.19 µM | 120 | 116 | 120
[4], 0.569 µM | 113 | 107 | 115
[4], 1.71 µM | 117 | 105 | 108
[4], 5.12 µM | 112 | 101 | 116
[4], 15.4 µM | 112 | 95.5 | 110
[4], 46.1 µM | 102 | 101 | 108
[5], 0.000781 µM | – | 102 | –
[5], 0.00234 µM | – | 122 | –
[5], 0.00702 µM | – | 112 | –
[5], 0.0211 µM | – | 123 | –
[5], 0.0632 µM | – | 121 | –
[5], 0.19 µM | – | 114 | –
[5], 0.569 µM | – | 96.6 | –
[5], 1.71 µM | – | 93.6 | –
[5], 5.12 µM | – | 99.9 | –
[5], 15.4 µM | – | 92.8 | –
[5], 46.1 µM | – | 98.4 | –

AUC of viability dose-response curve
Conditions | [1] | [2] | [3]
HPLM + 10% dialyzed FBS | 459 | 467 | 441
RPMI 5 mM glucose + 10% FBS | 462 | 440 | 440
RPMI 5 mM glucose + 10% dialyzed FBS | 451 | 448 | 457

Cn1cc(-c2ccc3nnc(Sc4ccc5ncccc5c4)n3n2)cn1
AUC of viability dose-response curve
Conditions | [1] | [2] | [3]
HPLM + 10% dialyzed FBS | 463 | 460 | 457
RPMI 5 mM glucose + 10% FBS | 449 | 448 | 475
RPMI 5 mM glucose + 10% dialyzed FBS | 455 | 459 | 472

CC(C)OC(=O)C(C)(C)Oc1ccc(C(=O)c2ccc(Cl)cc2)cc1
AUC of viability dose-response curve
Conditions | [1] | [2] | [3]
HPLM + 10% dialyzed FBS | 469 | 447 | 446
RPMI 5 mM glucose + 10% FBS | 459 | 446 | 423
RPMI 5 mM glucose + 10% dialyzed FBS | 466 | 464 | 442

C[C@]1(CO)CN(c2cc(C(=O)Nc3ccc4c(c3)-c3c(c(C(N)=O)nn3-c3ccc(F)cc3)CC4)c(Cl)cn2)C[C@@]1(C)CO
AUC of viability dose-response curve
Conditions | [1] | [2] | [3]
HPLM + 10% dialyzed FBS | 446 | 418 | 421
RPMI 5 mM glucose + 10% FBS | 457 | 423 | 317
RPMI 5 mM glucose + 10% dialyzed FBS | 445 | 422 | 422

COc1ccc(C(=O)N2CCCC2=O)cc1
AUC of viability dose-response curve
Conditions | [1] | [2] | [3]
HPLM + 10% dialyzed FBS | 447 | 447 | 449
RPMI 5 mM glucose + 10% FBS | 456 | 456 | 422
RPMI 5 mM glucose + 10% dialyzed FBS | 467 | 439 | 461

CN(C)Cc1c(C(=O)NCCOc2ccc(C(=O)NO)cc2)oc2ccccc12
AUC of viability dose-response curve
Conditions | [1] | [2] | [3]
HPLM + 10% dialyzed FBS | 366 | 347 | 324
RPMI 5 mM glucose + 10% FBS | 372 | 345 | 326
RPMI 5 mM glucose + 10% dialyzed FBS | 375 | 357 | 332

O=C(N[C@@H](c1ccccc1)[C@@H]1CCCCN1)c1cccc(C(F)(F)F)c1Cl
AUC of viability dose-response curve
Conditions | [1] | [2] | [3]
HPLM + 10% dialyzed FBS | 444 | 465 | 461
RPMI 5 mM glucose + 10% FBS | 462 | 465 | 450
RPMI 5 mM glucose + 10% dialyzed FBS | 408 | 464 | 407

Cc1nn(C)c(COc2ccc(N3CCN([S+](=O)([O-])N(C)C)CC3)cc2)c1-c1cccc2c(CCCOc3cccc4ccccc34)c(C(=O)O)n(CCN3CCOCC3)c12
cell viability [%]
Conditions | [4] | [5] | [6]
HPLM + 10% dialyzed FBS, 0.000781 µM | 92.3 | 86 | 96.9
HPLM + 10% dialyzed FBS, 0.00234 µM | 99.2 | 82.9 | 107
HPLM + 10% dialyzed FBS, 0.00702 µM | 97.4 | 102 | 121
HPLM + 10% dialyzed FBS, 0.0211 µM | 102 | 99.8 | 122
HPLM + 10% dialyzed FBS, 0.0632 µM | 103 | 105 | 124
HPLM + 10% dialyzed FBS, 0.19 µM | 106 | 100 | 108
HPLM + 10% dialyzed FBS, 0.569 µM | 107 | 101 | 137
HPLM + 10% dialyzed FBS, 1.71 µM | 110 | 118 | 101
HPLM + 10% dialyzed FBS, 5.12 µM | 29.9 | 96.2 | 25.9
HPLM + 10% dialyzed FBS, 15.4 µM | 29.2 | 112 | 36.8
HPLM + 10% dialyzed FBS, 46.1 µM | 28 | 51.7 | 32.1
RPMI 5 mM glucose + 10% FBS, 0.000781 µM | 89.3 | – | 100
RPMI 5 mM glucose + 10% FBS, 0.00234 µM | 107 | – | 110
RPMI 5 mM glucose + 10% FBS, 0.00702 µM | 101 | – | 105
RPMI 5 mM glucose + 10% FBS, 0.0211 µM | 97.7 | – | 110
RPMI 5 mM glucose + 10% FBS, 0.0632 µM | 105 | – | 112
RPMI 5 mM glucose + 10% FBS, 0.19 µM | 107 | – | 105
RPMI 5 mM glucose + 10% FBS, 0.569 µM | 109 | – | 118
RPMI 5 mM glucose + 10% FBS, 1.71 µM | 113 | – | 111
RPMI 5 mM glucose + 10% FBS, 5.12 µM | 104 | – | 25.2
RPMI 5 mM glucose + 10% FBS, 15.4 µM | 109 | – | 108
RPMI 5 mM glucose + 10% FBS, 46.1 µM | 46.6 | – | 22.8
RPMI 5 mM glucose + 10% dialyzed FBS, 0.000781 µM | 87.5 | 97.3 | 90.6
RPMI 5 mM glucose + 10% dialyzed FBS, 0.00234 µM | 107 | 106 | 112
RPMI 5 mM glucose + 10% dialyzed FBS, 0.00702 µM | 104 | 105 | 110
RPMI 5 mM glucose + 10% dialyzed FBS, 0.0211 µM | 106 | 106 | 116
RPMI 5 mM glucose + 10% dialyzed FBS, 0.0632 µM | 112 | 110 | 122
RPMI 5 mM glucose + 10% dialyzed FBS, 0.19 µM | 115 | 91.4 | 111
RPMI 5 mM glucose + 10% dialyzed FBS, 0.569 µM | 120 | 123 | 117
RPMI 5 mM glucose + 10% dialyzed FBS, 1.71 µM | 114 | 114 | 107
RPMI 5 mM glucose + 10% dialyzed FBS, 5.12 µM | 96.1 | 71 | 109
RPMI 5 mM glucose + 10% dialyzed FBS, 15.4 µM | 97.6 | 117 | 119
RPMI 5 mM glucose + 10% dialyzed FBS, 46.1 µM | 36.7 | 21.4 | 91.8

AUC of viability dose-response curve
Conditions | HPLM + 10% dialyzed FBS | RPMI 5 mM glucose + 10% FBS | RPMI 5 mM glucose + 10% dialyzed FBS
[2] | 392 | 463 | 456
[3] | 465 | 377 | 458
